In the OPERA property sets (Mansouri et al. 2018):

First: CC(C)N1C(=O)c2ccccc2NS1(=O)=O
Second: CC(C)OP(=O)(OC(C)C)SCc1ccccc1
The logP of the first is lower: 2.34 for the first, 3.34 for the second.

Going from CCCOP(=S)(OCCC)SCC(=O)N1CCCCC1C (stereo not drawn) to C#CCOS(=O)OC1CCCCC1Oc1ccc(C(C)(C)C)cc1 (stereo not drawn), the logP rises from 4.04 to 5.

Compared with CCO/N=C(\OC(=O)c1ccccc1)c1c(OC)ccc(Cl)c1OC, CCOP(=O)(Sc1ccccc1)Sc1ccccc1 is lower in logP: 3.73 for the first, 3.48 for the second.

First: O=C(NC(=O)c1c(F)cccc1F)Nc1cc(Cl)c(F)c(Cl)c1F
Second: Cc1ccc(S(=O)(=O)Oc2c(C(=O)c3ccc(Cl)cc3Cl)c(C)nn2C)cc1
The logP of the first is higher: 4.56 for the first, 3.9 for the second.

Going from CC12CC1(C)C(=O)N(c1cc(Cl)cc(Cl)c1)C2=O (stereo not drawn) to Clc1nc(Cl)nc(Nc2ccccc2Cl)n1, the logP rises from 3.08 to 3.88.

Going from OC(c1ccc(Cl)cc1)(c1ccc(Cl)cc1)C(Cl)(Cl)Cl to CCOP(=S)(OCC)Oc1cc(-c2ccccc2)on1, the logP falls from 5.02 to 3.73.

CC(C)OC(=O)C(C(=O)OC(C)C)=C1SCCS1 showed a logP of 2.88.
